Source: patent US20260159474A1, “Aminoindane Compounds and Compositions and Methods of Their Therapeutic Use” (Solvonis Therapeutics Ireland Holdings Limited, priority 2021, published 2026)

Assay: Plasma protein binding by equilibrium dialysis, human plasma
Format: in vitro ADME
Details: for Human Plasma (Fu %): fraction unbound, 0.5 μM; for fraction unbound at 5 h, 0.5 μM: human, plasma, pH 7.4, read-out: Human Plasma (Fu %)
Procedure: Methods: Plasma protein binding and blood tissue binding of test items (0.5 μM) was determined using biological samples from male Sprague Dawley (SD) rats and humans. […] Dexamethasone was used as a control compound for lung tissue binding. Various biological samples were spiked with test compounds according to the methods that follow.
Preparation of plasma or blood samples: An appropriate amount of test compound was dissolved in DMSO to yield a 10 mM solution. Further dilutions, to obtain 50 μM working solutions (WS), were then prepared using 50% acetonitrile in Milli-Q water. These 100×WS were used to spike plasma or blood to obtain a final concentration of 0.5 μM. From this initial spiking solution, control samples (n=3), referred to as T=0, were immediately extracted and used to calculate the recovery of the test item.
An equilibrium dialysis method was performed to determine protein binding in the various biological samples described herein. Materials were prepared and methods were in accordance with the following procedures.
Membranes were prepared for use in the equilibrium dialysis experiment. by soaking in deionized water for at least 60 minutes. After this period, 20% of pure ethanol was added, and the membranes were left in this solution for at least 20 minutes. The membranes were then rinsed in Milli-Q water prior to use.
To initiate the experiment, 150 μL of test item-free buffer (isotonic phosphate buffer for plasma and blood, artificial CSF buffer for brain or HBSS buffer for lung) was dispensed on one half-well of a 96-well dialyzer apparatus (HTDialysis LLC), and 150 μL of spiked matrix (plasma, blood, brain or lung) was loaded on the other half-well. Alternative volumes may be used according to the operating instructions of HTDialysis.
Dialysis buffer was prepared by dissolving Na2HPO4 8.69 g, KH2PO4 1.90 g, and NaCl 4.11 g in […] of MilliQ water, and adjusting the pH to 7.4 with H3PO4. At the end of the equilibration period (device is sealed and incubated under shaking for 5 hours at 37° C.), 50 μL of dialysed matrix will be added to 50 μL of corresponding test item free dialysed buffer, and vice versa for buffer, such that the volume of buffer to matrix will be the same. Samples were extracted by protein precipitation with 300 μL of acetonitrile containing rolipram (for positive ionization mode) or diclofenac (for negative ionization mode) as internal standard and centrifuged for 10 minutes at 2800 rpm. Supernatants were collected (100 μL), diluted with 18% ACN in Milli Q water (200 μL).
Samples were then injected onto an HPLC MS/MS or UPLC MS/MS system. In order to control the integrity of the membrane after the dialysis process, the presence of protein was assessed in the buffer compartment. 5 μL of dialysed buffer will be added with 250 μL of Bio-Rad protein assay reagent (Bio-Rad) diluted 1:5 with Milli-Q water. A change in color from brown to a brilliant blue indicates protein contamination. Contaminated samples were excluded from all calculations.
Samples were analyzed in a LC-MS/MS system using an analytical method to monitor the compound to internal standard peak area ratios as representative of the compound concentrations. Alternatively, samples were analyzed by RapidFire.
Protein binding in plasma, blood, brain, and lung tissue samples were determined with the following formula: Afu=Buffer/x, wherein “x” may be plasma, blood, brain, or lung, and “Afu” is the apparent fraction unbound, and the other variables refer to the analyte/internal standard ratio determined in their specific compartment (buffer, plasma, blood, brain homogenate, and lung homogenate); Fucr-(1/D)/[(1/Afu)-1+(1/D)], wherein fucr is the fraction unbound corrected, D is the matrix dilution factor (D=1 for plasma, 2 for blood, 3 for brain, 7 for lung). % Binding=(1−fucr)×100 and % Unbound=100—% Bound. See, e.g., Kalvass et al., Drug Metab Dispos., 2018; 46(4):458-469. […]

| Structure (SMILES) | Human Plasma (Fu %) | fraction unbound at 5 h, 0.5 μM |
| --- | --- | --- |
| COC(=O)c1cc2c(cc1OC)CC(N)C2 (centres unmarked) [CMP-401] | >50% | > 0.5 |
| COC(=O)COc1ccc2c(c1)CC(N)C2 (centres unmarked) [CMP-402] | >50% | > 0.5 |
| COC(=O)c1ccc2c(c1)CC(N)C2 (centres unmarked) [CMP-405, 2-aminoindane-5-methylcarboxylate] | high binding in plasma specimens and Low |  |
| CNC(C)Cc1ccc2c(c1)OCO2 (centres unmarked) [MDMA] | >50% |  |
| COc1ccc2c(c1)CC(N)C2 (centres unmarked) [MEAI, 5-methoxy-2-aminoindane] |  | > 0.5 |
| COc1cc2c(cc1C)CC(N)C2 (centres unmarked) [MMAI, 5-methoxy-6-methyl-2-aminoindane] |  | > 0.5 |
